The test system of test [1] is miR-199a. As to the kind of experiment: Northern blotting of miR-199a in myocytes. Format: cell-based, rat. The conditions noted are these: 100 μM, 16 h. The source says: g. […] Total RNA was then extracted and analyzed by Northern blotting for the miRNA indicated on the left (n=2).
(§1) Northern blotting—As previously described.

The subject of test [2] is Sirt1. As to the kind of experiment: Sirt1 protein in myocytes by Western blotting. Format: cell-based, rat. The conditions noted are these: 40 μM, 24 h. The procedure:
c. […] Protein was then extracted and analyzed by Western blotting.
b. Cultured adult rat cardiac myocytes were treated with miR-199a eraser for 24 h or HPC. Protein was extracted and analyzed by Western blotting for the molecules indicated on the left of each panel (n=3).
(§2) Cellular fractionation and Western blotting—Mitochondria was isolated using ProteoExtract Cytosol/Mitochondria Fractionation Kit (Calbiochem, NJ), according to the manufacturer's protocol. Fifteen μg of protein was separated on a 4% to 20% gradient SDS-PAGE (Criterion gels, Bio-Rad, CA) and transferred onto TransBlot Transfer membrane (Bio-Rad, CA).
Background: Immunoblotting shows a protein as a band on a membrane.

Test [3] relates to cardiocytes. Description: Cellular outgrowths/branches of cultured cardiocytes. The test is classed as cell-based, rat. The conditions noted are these: cardiocytes treated with isoproterenol, titin staining. As for the experimental part: Cell cultures and adenovirus Infection—Neonatal cardiac myocytes were prepared from Sprague Dawley rat hearts as previously described, using both pre-plating and percoll gradients for enriching of myocytes. Adult cardiac myocytes were prepared as previously described.
But after 48-72 h in culture extensive cellular outgrowths (4±3 branches/cell) were noticed that varied in length (44±28 μm) depending on the distance between neighboring cells (FIG. 8c). Sprouty, a known inhibitor of branching morphogenesis and neurite outgrowth, is predicted to be a miR-21 target by TargetScanS and PicTar miRNA target prediction software, each using a unique set of algorithms. To confirm its potential in mediating miR-21's branching effects, it was independently knocked down using adenoviral delivered short-hairpin RNA (see FIG. 8e).
The physiological relevance of these miR-21-induced outgrowths were assessed. After treatment of the cells with isoproterenol and staining them with an antibody against the sarcomeric protein titin, cellular outgrowth that were connecting or reaching out to adjacent cells was observed (FIG. 9a). The striated pattern of titin staining reflects the presence of sarcomeres even within these branches. This effect was wide spread in all observed fields (4±3 branches/cell). Impressively, these outgrowths were abrogated by the miR-21 eraser or over-expression of SPRY2 (FIG. 9a). […]

Test [4] has as its system SPRY2. Description: SPRY2 protein in cardiocytes (Western blot, immunostaining). The test is classed as cell-based, rat. Conditions: isoproterenol and β2AR. The source says: Using Western blot analysis down-regulation of endogenous SPRY2 (52±4%) was confirmed upon over-expression of miR-21 for 48 hr (FIG. 8d). Since sprouty negatively regulates erk1/2, phospho-erk1/2 was used as a marker for monitoring changes in Spry2 function that would be regulated by changes in its levels. […] Thus, SPRY2 is a downstream target of miR-21 (could be a direct or indirect target at this juncture) and has limiting cellular concentrations.
The physiological relevance of these miR-21-induced outgrowths were assessed. After treatment of the cells with isoproterenol and staining them with an antibody against the sarcomeric protein titin, cellular outgrowth that were connecting or reaching out to adjacent cells was observed (FIG. 9a). The striated pattern of titin staining reflects the presence of sarcomeres even within these branches. This effect was wide spread in all observed fields (4±3 branches/cell). Impressively, these outgrowths were abrogated by the miR-21 eraser or over-expression of SPRY2 (FIG. 9a). […] Similar results were obtained when cells were treated the a virus over-expressing β2AR (supplementary FIG. 9s). While FIG. 7 confirms that isoproterenol and β2AR induce upregulation of miR-21, FIG. 9b confirms that they also induce 70±22% downregulation of SPRY2 protein (FIG. 9b). […]

Test [5] relates to miR-21. As to the kind of experiment: Northern blotting of miR-21 in cardiocytes. The test is classed as cell-based. The conditions noted are these: isolated rat cardiocytes.
Text: as §1
In order to address the role of miR-21 in cardiocytes a 320 nt sequence that encompasses the miR-21 stem-loop was cloned into a recombinant adenovirus (FIG. 8a). A tandem repeat of the anti-sense sequence of mature miR-21 was also cloned under the control of the U6 promoter (FIG. 8a). […] For that reason this construct was dubbed ‘miR-21 eraser’.

Test [6] concerns prolyl hydroxylase 2 (PHD2). Description: PHD2 protein in myocytes by Western blotting. The test is classed as cell-based, rat. Conditions: myocytes overexpressing Sirt1, 20 mM. As for the experimental part: b. Myocytes were treated as described in (a.) and as indicated in the grid by + signs. Protein was extracted and analyzed by Western blotting (n=3).
d. Myocytes were subjected to 24 h anoxia or HPC, before or after treatment with a control or miR-199a-expressing virus for 24 h where indicated by + signs. Protein was extracted and analyzed by Western blotting for the molecules indicated on the left.
e. Myocytes were treated with a control or Sirt1-overexpressing virus in the absence or presence or 20 mM nicotinamide (NAM). Protein was extracted and analyzed by Western blotting (n=3).
as §2

As to `Nc1ncnc2c1ncn2[C@@H]1O[C@H](CO)[C@@H](O)[C@H]1O` [adenosine], the miR-199a level entry in test [1] is on record as “downregulation”.

For the compound `Oc1ccc(C=Cc2cc(O)cc(O)c2)cc1` [resveratrol], the Sirt1 expression result in test [2] is reported as “increase”.

The compound `CC(C)NCC(O)c1ccc(O)c(O)c1` (stereo not drawn) [isoproterenol] registered a cellular outgrowths in test [3] of 4±3 branches/cell. Moreover, in test [4], the “downregulation of SPRY2 protein” value was 70±22%. Also, the miR-21 level result in test [5] is “upregulation”.

Turning to `NC(=O)c1cccnc1` [nicotinamide], the “Sirt1-induced knockdown of PHD2” value in test [6] is given as “reversed”.
